The assay deals with Trifunctional purine biosynthetic protein adenosine-3 (Mus musculus) (UniProt Q64737). Briefly: Compound was evaluated for the inhibition of GAR transformylase isolated from murine lymphoma cell line L5178Y.

The structures appear in SMILES notation. pKi: −log10 of the molar value.

Chain of Trifunctional purine biosynthetic protein adenosine-3 (Mus musculus) (Q64737 whole entry, looked up): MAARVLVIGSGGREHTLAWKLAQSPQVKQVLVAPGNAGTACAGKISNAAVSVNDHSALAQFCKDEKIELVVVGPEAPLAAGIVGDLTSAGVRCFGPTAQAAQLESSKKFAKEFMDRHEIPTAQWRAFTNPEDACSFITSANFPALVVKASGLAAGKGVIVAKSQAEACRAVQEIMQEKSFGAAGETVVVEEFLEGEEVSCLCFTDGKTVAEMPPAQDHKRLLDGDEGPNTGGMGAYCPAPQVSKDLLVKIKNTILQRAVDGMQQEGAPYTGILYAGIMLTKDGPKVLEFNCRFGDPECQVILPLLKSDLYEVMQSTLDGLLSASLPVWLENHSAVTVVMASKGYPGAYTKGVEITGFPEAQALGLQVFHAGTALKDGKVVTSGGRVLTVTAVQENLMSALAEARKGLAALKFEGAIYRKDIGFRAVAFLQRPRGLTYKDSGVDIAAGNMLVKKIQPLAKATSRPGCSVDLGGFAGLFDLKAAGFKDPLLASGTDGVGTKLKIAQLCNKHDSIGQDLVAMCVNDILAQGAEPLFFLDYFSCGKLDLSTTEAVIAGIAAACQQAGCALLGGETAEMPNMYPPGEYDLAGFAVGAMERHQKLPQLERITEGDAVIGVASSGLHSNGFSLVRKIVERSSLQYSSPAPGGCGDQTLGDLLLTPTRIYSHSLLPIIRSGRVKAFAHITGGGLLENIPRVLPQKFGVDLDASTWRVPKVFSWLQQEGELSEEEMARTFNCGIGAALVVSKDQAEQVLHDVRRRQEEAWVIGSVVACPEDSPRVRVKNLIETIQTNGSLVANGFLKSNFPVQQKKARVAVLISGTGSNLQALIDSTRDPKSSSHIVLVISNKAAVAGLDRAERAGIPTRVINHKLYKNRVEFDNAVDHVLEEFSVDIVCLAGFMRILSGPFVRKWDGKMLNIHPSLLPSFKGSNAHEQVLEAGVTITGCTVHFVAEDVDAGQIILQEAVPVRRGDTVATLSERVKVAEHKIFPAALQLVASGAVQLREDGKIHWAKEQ

Turning to `Nc1nc2ccc(CNc3ccc(C(=O)NC(CCC(=O)O)C(=O)O)cc3)cc2c(=O)[nH]1` (configuration not stated), the pKi – broadly, the Ki on a negative log10 scale, so that one unit is a factor of ten – is 5.70.

Regarding `CC(=O)N(Cc1ccc2nc(N)[nH]c(=O)c2c1)c1ccc(C(=O)NC(CCC(=O)O)C(=O)O)cc1` (configuration not stated) [2-{4-[Acetyl-(2-amino-4-oxo-3,4-dihydro-quinazolin-6-ylmethyl)-amino]-benzoylamino}-pentanedioic acid], the pKi was 5.89.

For the origin of these results see BindingDB's records for doi:10.1021/jm00160a056 (1986).
